Assay results reported in US20070098693A1, “Methods for enhancing engraftment of purified hematopoietic stem cells in allogenic recipients” (priority 2003, published 2007).

Legend:
Type in all cases: cell-based, mice
CD8^+/TCR^− FC [1] = experiment: CpG ODN / LPS stimulation of sorted FC, cytokine production by ELISA / multiplex
Protocol: (§1) CpG oligodeoxynucleotides (ODN) stimulation. Sorted p-preDC or FC were cultured for 18 hours at 10^5 cells/200 μL in 96 well round-bottom culture plates in culture medium in the presence or absence of Toll-like receptor (TLR)-9 ligand, CPG-ODN 1668 (TCCATGACGTTCCGATGCT) (SEQ ID NO. 1) (GibcoBRL Custom Primers) at 1 μM, TLR-4 ligand, LPS from Escherichia coli (Sigma, MO, USA) at 10 μg/ml, as previously described^30. CpG or LPS-treated or untreated cells were subsequently assayed for: 1) the expression of DC activation/maturation cell surface markers by FACS, 2) their survival rate by 7AAD staining, or 3) morphological appearance by Wright Giemsa staining on cytospins. The supernatant of these cultures were collected for analysis of the production of different cytokines by ELISA.
Cytokine production by ELISA. Briefly, the cell-free supernatants of 12H, 18H, or 24H cultured cells (FC or p-preDC,) with or without CpG ODN or LPS were collected and kept frozen at −80° C. The amount of cytokine produced was determined by 1) ELISA kits for mouse IFN-α (R&D system) and mouse TNF-α (Biosource International), and 2). Multiplex for MIP 1αCCL3), GM-CSF, MCP-1 (CCL2), RANTES (CCL5), IFN-γ, IL-1β, IL-2, IL-4, IL-5, IL-6, IL-10, IL-12p70, IL-9, and IL13 on 18 hour incubation supernatants from three different experiments performed by Linco Diagnostic Services (St. Charles, Mo.).

CD8^+/TCR^− FC [2] = experiment: Activation marker expression on sorted FC after 18 h culture (FACS)
From the text: (§2) mAbs and Flow cytometry. The following mAbs (all from BD Biosciences Pharmingen, San Diego, Calif., except those labeled with APC-cy-7 from eBioscience, San Diego, Calif.) were used. To sort CD8^+/TCR^− FC: anti-CD8α (53-6.7) PE-labeled, anti-TCR β chain (H57-597) and anti-TCR γδ chain (GL3) FITC-labeled. To sort B220^+/CD11c^dim/CD11b^− p-preDC: anti-CD11b (M1/70) APC-labeled, anti-CD45R/B220 (RA3-6B2) APC-Cy7-labeled, anti-CD11c (HL3) PE-labeled, and anti-TCR β chain (H57-597), anti-TCR γδ chain (GL3), anti-CD14 (rmC5-3), anti-CD19 (1D3), anti-Pan-NK cells (DX5), and anti-NK1.1 (PK136), all FITC-labeled. To sort HSC: anti-TCR β chain (H57-597), anti-TCR γδ chain (GL3), anti-Ly-6G (Gr-1), anti-CD11b, Mac1 (M1/70), anti-CD8α (53-6.7) and anti-CD45R/B220 (RA3-6B2), all FITC-labeled, anti-Ly-6A/E (Sca-1) (E13-161.7) PE-labeled and anti-c-Kit (CD117) (2B8) APC-labeled. To restain the sorted FC population: purified anti-CD16/CD32 (FcγIII/II receptors) (2.4G2), anti-CD11c (HL3), anti-CD4 (RM4-5) and anti-CD19 (1D3) all APC-labeled, anti-CD45R/B220 (RA3-6B2) PerCP-labeled, and anti-Pan-NK cells (DX5), anti-NK1.1 (PK136), anti-CD14 (rmC5-3), and anti-Ly-6G (Gr-1) FITC-labeled. To analyze the activation state: anti-CD80 (B7-1) ([…]), anti-CD86 (B7-2) ([…]), and anti-I-A^b (Aβ^b) (AF6-120.1) FITC-labeled. For PBL typing and multilineage chimerism: anti-H-2 K^b (AF6-88.5) PE or FITC-labeled, anti-H-2K^k (36-7-5) PE or FITC-labeled, anti-TCR β chain (H57-597), anti-NK1.1 (PK136), anti-Ly-6G (Gr-1), anti-CD11b, Mac1 (M1/70) and anti-CD45R/B220 (RA3-6B2) all FITC-labeled. Detection of dead cells after cell culture was determined by using a 7-Amino-actinomycin D (7-AAD) (Molecular Probes, Eugene, Oreg.) followed by FACS analysis.
as §1

[3] = tested on: B220^+/CD11c^dim/CD11b^− p-preDC; experiment: Activation marker expression on sorted p-preDC after 18 h culture (FACS)
From the text: as §2, §1

CD8^+/TCR^− FC [4] = experiment: Cell death of sorted FC after overnight culture (7AAD staining)
From the text: as §2, §1

[5] = tested on: B220^+/CD11c^dim/CD11b^− p-preDC; experiment: Cell death of sorted p-preDC after overnight culture (7AAD staining)
From the text: as §2
CpG oligodeoxynucleotides (ODN) stimulation. […]

[6] = CpG ODN stimulation, 18 hours, multiplex
[7] = FL-derived FC and FL-derived p-preDC (FIG. 4c), CpG-ODN overnight
[8] = after culture with medium or CpG stimulation
[9] = FL-derived FC, CpG ODN exposure overnight
[10] = fresh BM FC, overnight exposure to CpG ODN, n=4
[11] = FL-derived p-preDC, CpG ODN exposure overnight
[12] = fresh BM p-preDC, overnight exposure to CpG ODN, n=2
[13] = fresh FC, overnight culture with CpG

CpG ODN: Toll-like receptor (TLR)-9 ligand, CPG-ODN 1668 (TCCATGACGTTCCGATGCT) (SEQ ID NO. 1) (DNA, backbone and methylation of C not given here)
IL-6 production by FC (CD8^+/TCR^− FC [1]; [6]): moderate amounts | IL-12p70 production by FC (CD8^+/TCR^− FC [1]; [6]): low levels | Mip1-α/CCL3 production by FC (CD8^+/TCR^− FC [1]; [6]): high amounts | RANTES/CCL5 production by FC (CD8^+/TCR^− FC [1]; [6]): moderate amounts | TNF-α production by FC (CD8^+/TCR^− FC [1]; CpG ODN stimulation, 24 hours, ELISA): large amounts | IFN-α secretion of FL-derived cells after CpG-ODN (CD8^+/TCR^− FC [1]; [7]): increased further | IL-12p70 production of FL-derived cells after CpG-ODN (CD8^+/TCR^− FC [1]; [7]): increased further | TNF-α production of FL-derived cells after CpG-ODN (CD8^+/TCR^− FC [1]; [7]): increased further | GM-CSF production by FC (CD8^+/TCR^− FC [1]; [8]): no | IFN-γ production by FC (CD8^+/TCR^− FC [1]; [8]): low amounts | IL9 production by FC (CD8^+/TCR^− FC [1]; [8]): low amounts | IL-1β production by FC (CD8^+/TCR^− FC [1]; [8]): no | IL-2 production by FC (CD8^+/TCR^− FC [1]; [8]): no | IL-4 production by FC (CD8^+/TCR^− FC [1]; [8]): no | IL-5 production by FC (CD8^+/TCR^− FC [1]; [8]): no | IL-10 production by FC (CD8^+/TCR^− FC [1]; [8]): low amounts | IL-13 production by FC (CD8^+/TCR^− FC [1]; [8]): no | MCP-1/CCL2 production by FC (CD8^+/TCR^− FC [1]; [8]): low amounts | IFN-α production by FC (CD8^+/TCR^− FC [1]; sorted bone marrow FC cultured with stimulus, ELISA): levels similar to those produced by p-preDC | CD80 expression on FL-derived FC after CpG ODN (CD8^+/TCR^− FC [2]; [9]): 48% | CD86 expression on FL-derived FC after CpG ODN (CD8^+/TCR^− FC [2]; [9]): 77% | Class II expression on FL-derived FC after CpG ODN (CD8^+/TCR^− FC [2]; [9]): 73% | CD80 expression on FC (CD8^+/TCR^− FC [2]; [10]): 23.5±8% | CD86 expression on FC (CD8^+/TCR^− FC [2]; [10]): 86±12% | Class II expression on FC (CD8^+/TCR^− FC [2]; [10]): 74±6.5% | CD80 expression on FL-derived p-preDC after CpG ODN [3, 11]: 63% | CD86 expression on FL-derived p-preDC after CpG ODN [3, 11]: 87% | Class II expression on FL-derived p-preDC after CpG ODN [3, 11]: 88% | CD80 expression on p-preDC [3, 12]: 12.5±1% | CD86 expression on p-preDC [3, 12]: 85±13% | Class II expression on p-preDC [3, 12]: 39±4% | decrease of mortality of FL-treated FC (CD8^+/TCR^− FC [4]; FL-derived FC, CpG ODN overnight versus medium): 10-15% | decrease of FC mortality compared to media alone (CD8^+/TCR^− FC [4]; [13]): 10% | mortality of FC (dead cells) (CD8^+/TCR^− FC [4]; [13]): 43.5±3.5% | rescue of FL-derived p-preDC from death ([5]; CpG exposure (data not shown)): partially rescued | mortality of p-preDC (dead) ([5]; fresh p-preDC, overnight culture with CpG): 35±0.3%
